Measured values: patent publication US20180200279A1, “INHIBITION OF HSV-1-ASSOCIATED CORNEAL NEOVASCULARIZATION USING INHIBITORS OF CYCLIN-DEPENDENT KINASE 9” (XAVIER UNIVERSITY OF LOUISIANA, priority 2014, published 2018)
pIC50: −log10 of the molar value.

Experiments:
[1] = test system: HSV-1 17syn+; test: Real-time PCR of HSV-1 DNA on ocular swabs of infected mice; assay type: in vivo, Balb/c mice; settings: day 25 post infection; 1% TFT, 0.01% flavopiridol, 0.1% DRB drops; n=10
Protocol: SYBR Green semi-quantitative real-time PCR was performed on DNA samples eluted from swabs taken from mouse eyes on days 2, 4, 7, 9, 11, 14, 18 and 25 post infection with 5×10^5 PFU/eye HSV-1 17syn+ using primers specific for HSV-1 DNA polymerase.
All experimental procedures were performed in accordance with the ARVO Resolution for the Use of Animals in Ophthalmic and Vision Research and were approved by the Xavier University Animal Care and Use Committee. Female 20 g Balb/c mice were obtained from Charles River Laboratories. Mice were allowed to equilibrate to their surroundings for 2 weeks and then were anesthetized by intramuscular administration of xylazine (6.6 mg/kg of body weight) and ketamine (100 mg/kg of body weight). The corneas were mildly scarified in a 2×2 cross-hatch pattern and each cornea was inoculated with 5×10^5 PFU of strain HSV 17syn+. […] DNA was collected by swabbing the eyes with filter paper, and the eyes were examined with a slit-lamp on PI days 2, 4, 7, 9, 11, 14, 18 and 25. Average neovascularization/eye was scored using the formula A=(C×0.4×L×π)/2 where C=clock hours of neovascularization; 30° arc is 1 (360° circle with a total of 12); L is the length of the longest neovessel, and A is the area of neovascularization. Students scored (by eye) the animals on the days indicated in a masked fashion using the slit-lamp, and images representative of each group were taken. Clinical scores based on epiphora, inflammation and discharge were calculated where 0=no manifestations, +1=slight manifestations, +2=moderate manifestations, and +3=severe manifestations. […] Ex ovo chick embryo chorioallantoic membrane collagen angiogenesis assays were performed using methods as previously described (Deryugina E I and Quigley J P. Chapter 2. Chick embryo chorioallantoic membrane models to quantify angiogenesis induced by inflammatory and tumor cells or purified effector molecules. Methods Enzymol. 444:21-41. 2008). […]

[2] = test system: chick embryo chorioallantoic membrane; test: Ex ovo chick chorioallantoic membrane (CAM) collagen onplant angiogenesis assay; assay type: in vivo; settings: 100 nM flavopiridol in bFGF/VEGF-containing collagen plugs; 3 days
From the text: After 3 days, CAMs were photographed, and angiogenesis was quantified by counting the number of grids positive for new blood vessel growth in a blinded manner. Results are expressed as number of grids positive for blood vessels and as percent positive grids.

[3] = test system: HUVEC; test: Global transcription, BrU incorporation into RNA by flow cytometry; assay type: cell-based, human; settings: serum-starved, PMA-treated HUVEC
Protocol: Vein endothelial cells (VEC) were activated with phorbol myristate acetate (PMA) and incubated with membrane-permeable 5-bromouridine (BrU) that incorporates into RNA transcribed during the incubation period. A commercially available antibody against 5-bromo-deoxy-uridine was then used to quantify BrU-containing RNA. Cells were analyzed by immunofluorescence staining (not shown) and by flow cytometry for the presence of incorporated BrU to quantify the level of global transcription. […] Additional controls include no antibody and no BrU.
To determine whether FP blocked transcription globally at concentrations at which it reduces angiogenesis in vitro, HUVEC were activated with phorbol myristate acetate (PMA) and incubated with membrane-permeable 5-bromouridine (BrU) that incorporates into RNA transcribed during the incubation period. A commercially available antibody against 5-bromo-deoxy-uridine was then used to quantify BrU-containing RNA. Cells were analyzed by immunofluorescence staining (not shown) and by flow cytometry for the presence of incorporated BrU to quantify the level of global transcription.
Additional controls include no antibody (-Ab) and no BrU (-BrU) (FIG. 5A).

[4] = Ocular safety and tolerability of the formulation, rabbit eyes; assay type: in vivo; settings: dose and frequency of the HSV-1 corneal neovascularization study
Protocol: This was assessed with the dose and frequency that was used in the chemotherapeutic study of HSV-1 corneal neovascularization. FIG. 1A presents the results of slit-lamp examination (SLE) scores of the corneas of the four treatment groups beginning on post-inoculation day 2 and continuing to 25 days following infection.

[5] = test system: HUVEC; test: Endothelial cell transwell migration assay; assay type: cell-based, human; settings: 16 hours
Protocol: Migration/invasion assays were performed using 24-well, 8-μm pore size BD Biocoat Matrigel migration chambers according to the manufacturer's instructions (BD Biosciences, San Jose, Calif.). […] Cells were allowed to migrate for 16 hours at 37° C. Following incubation, cotton swabs were used to remove the cells on the top surface of the membrane, and cells on the bottom side of the membrane were fixed with 4% formaldehyde for 30 min, washed 3-5 times with PBS, and then stained with 10 μM Calcein AM (migration) or 10 μM Celltracker green-labeled (invasion). Migrating or invading cells from three repeats in two independent experiments were then counted using an inverted microscope. Data are expressed as mean percent migration and mean percent invading cells compared with untreated cells±SEM.
Cell migration induced by chemoattractant angiogenic factors such as bFGF and VEGF is an important step in the angiogenic process. […] Data presented as percent fluorescence normalized to control untreated cells (100% migration).

[6] = test system: HSV-1; test: In vitro viral inhibition (plaque) assay in CV-1 cells; assay type: cell-based
Protocol: Numbers of plaque-forming units (PFU) were determined in a standard plaque assay procedure using CV-1 cells.
The HSV-1 strain employed was 17 syn+. Before inoculation, numbers of plaque-forming units (PFU) were determined in a standard plaque assay procedure using CV-1 cells. Pooled primary human umbilical vein endothelial cells (HUVEC) were obtained from Lonza (Basel, Switzerland) and were cultured in Medium 199 (Life Technologies, Carlsbad, Calif.) supplemented with 20% heat-inactivated FBS, penicillin G (100 U/ml), streptomycin ([…]), 2 mM L-glutamine and 1:100 endothelial cell growth supplement (ECGS, BD Biosciences, Bedford, Mass.) on tissue culture plates coated with 0.2% gelatin up to passage 6. Cells were sub-passaged or harvested when they reached ˜80% confluence. For periods of serum-deprivation, HUVEC were incubated for 4 or 16 hours in serum-starvation medium (SSM) containing Medium 199 without phenol red or ECGS but containing 0.5% FBS unless otherwise indicated. In vitro viral inhibition assays with CV-1 cells were performed as previously described (Gong E Y. Methods for screening and profiling inhibitors of herpes simplex viruses. Methods Mol Biol. 1030:303-313. 2013).

CN1CC[C@H](c2c(O)cc(O)c3c(=O)cc(-c4ccccc4Cl)oc23)[C@H](O)C1 [flavopiridol]
quantitative real-time PCR score (HSV-1 DNA) on ocular swabs [1]: 0.039±0.176 | angiogenesis: grids positive for newly formed blood vessels [2]: 14.33±2.10 | BrU incorporation into RNA (total cellular transcription) ([3]; 50 nM-300 nM FP): only slightly reduced | BrU incorporation into RNA (total cellular transcription) ([3]; 600 nM-1 μM FP): significantly (p<0.05 compared with untreated cells) reduced BrU incorporation into RNA | safety and tolerability of the formulation in the eye [4]: safe and well-tolerated | percent migration normalized to untreated control cells (100%) ([5]; 100 nM flavopiridol): 74.99%±2.35 | percent migration normalized to untreated control cells (100%) ([5]; 150 nM flavopiridol): 25.08±1.79% | concentration at which HSV-1 replication was significantly inhibited [6]: 250 nM | pIC50 ([6]; Human alphaherpesvirus 1, read-out: average IC50 of HSV-1 replication): 7.00
